Measurements reported in patent US20090047244A1, “MACROCYCLIC SERINE PROTEASE INHIBITORS I” (Idenix Pharmaceuticals, Inc., priority 2007, published 2009).
pEC50, pIC50: −log10 of the molar value.

Legend:
[1] = Cytotoxicity evaluation (Cell Titer 96 AQueous One Solution Cell Proliferation Assay); assay type: cell-based; conditions: human; GS4.1 cells, cellular viability
Method: For cytotoxicity evaluation, GS4.1 cells were treated with compounds as described above and cellular viability was monitored using the Cell Titer 96 AQueous One Solution Cell Proliferation Assay (Promega). CC50 values were determined from the % cytotoxicity versus concentration data with Tecan Magellan software as described above.

HCV NS3-NS4A protease = target: T1, HCV NS3-NS4A protease (Hepatitis C virus genotype 1a, UniProt P27958); test: HCV Protease Assay (SensoLyte 620 HCV Protease Assay kit); assay type: biochemical; conditions: 1.2 nM HCV NS3-NS4A protease, 5% DMSO, 60 min at room temperature
T1 construct: made in house
T1 sequence (P27958 1027-1208): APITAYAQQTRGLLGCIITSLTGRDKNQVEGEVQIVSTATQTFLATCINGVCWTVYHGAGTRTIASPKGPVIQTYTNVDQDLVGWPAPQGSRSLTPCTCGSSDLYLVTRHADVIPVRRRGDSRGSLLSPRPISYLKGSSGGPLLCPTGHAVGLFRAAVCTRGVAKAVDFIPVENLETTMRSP
Method: General procedure: Measurement of the inhibitory effect of compounds on HCV protease activity was performed with the SensoLyte™ 620 HCV Protease Assay kit from AnaSpec, Inc. (San Jose, Calif.) under conditions described by the supplier using 1.2 nM HCV NS3-NS4A protease, which was obtained according to Taremi et al. (Protein Science, 1998, 7, 2143-2149). The compounds were tested at a variety of concentrations in assay buffer containing a final DMSO concentration of 5%. Reactions were allowed to proceed for 60 min at room temperature and fluorescence measurements were recorded with a Tecan Infinity Spectrofluorimeter. The IC50 values were determined from the percent inhibition versus concentration data using a sigmoidal non-linear regression analysis based on four parameters with Tecan Magellan software.

[2] = system: Huh-7 cells containing HCV Con1 subgenomic replicon (GS4.1 cells); test: HCV Replicon Assay (NS4A ELISA); assay type: cell-based; conditions: Hepatitis C virus, 72 hr, NS4A protein expression by ELISA
Method: General procedure: Huh-7 cells containing HCV Con1 subgenomic replicon (GS4.1 cells) were grown in Dulbecco's Modified Eagle Medium (DMEM) supplemented with 10% fetal bovine serum (FBS), 2 mM L-glutamine, 110 mg/L sodium pyruvate, 1X non-essential amino acids, 100 U/mL penicillin-streptomycin, and 0.5 mg/mL G418 (Invitrogen). For dose-response testing, the cells were seeded in 96-well plates at 7.5×10^3 cells/well in a volume of 50 μL, and incubated at 37° C./5% CO2. Three hours after plating, 50 μL of ten 2-fold serial dilutions of compounds (highest concentration, 75 μM) were added, and cell cultures were incubated at 37° C./5% CO2 in the presence of 0.5% DMSO. Alternatively, compounds were tested at a single concentration of 15 μM. In all cases, Huh-7 cells lacking the HCV replicon served as negative control. The cells were incubated in the presence of compounds for 72 hr after which they were monitored for expression of the NS4A protein by enzyme-linked immunosorbent assay (ELISA). For this, the plates were then fixed for 1 min with acetone/methanol (1:1, v/v), washed twice with phosphate-buffered saline (PBS), 0.1% Tween 20, blocked for 1 hr at room temperature with TNE buffer containing 10% FBS and then incubated for 2 hr at 37° C. with the anti-NS4A mouse monoclonal antibody A-236 (ViroGen) diluted in the same buffer. After washing three times with PBS, 0.1% Tween 20, the cells were incubated 1 hr at 37° C. with anti-mouse immunoglobulin G-peroxidase conjugate in TNE, 10% FBS. After washing as described above, the reaction was developed with O-phenylenediamine (Zymed). The reaction was stopped after 30 min with 2 N H2SO4, and absorbance was read at 492 nm using Sunrise Tecan spectrophotometer. EC50 values were determined from the % inhibition versus concentration data using a sigmoidal non-linear regression analysis based on four parameters with Tecan Magellan software. When screening at a single concentration, the results were expressed as % inhibition at 15 μM.

Row | SMILES | CC50 [1] | pIC50 (HCV NS3-NS4A protease) | pEC50 [2]
1 | C#C[C@@H]1CCCN1S(=O)(=O)NC(=O)[C@@]12C[C@H]1/C=C\CCCCN(C)C(=O)N[C@@H](CCOc1cc(-c3nc(C(C)C)cs3)nc3c(Cl)c(OC)ccc13)C(=O)N2 | > 1000 µM | > 7.00 | 5.00 to 7.00
2 | COc1ccc2c(OCC[C@@H]3NC(=O)N(C)CCCC/C=C\[C@@H]4C[C@@]4(C(=O)NS(=O)(=O)C4(CC5CC5)CC4)NC3=O)cc(-c3nc(C(C)C)cs3)nc2c1Cl | > 1000 µM | > 7.00 | 5.00 to 7.00
3 | COc1ccc2c(OCC[C@@H]3NC(=O)N(C)CCCC/C=C\[C@@H]4C[C@@]4(C(=O)NS(=O)(=O)C4CC4)NC3=O)cc(-c3ccccc3)nc2c1 | > 1000 µM | > 7.00 | 5.00 to 7.00
4 | COc1ccc2c(OCCC3NC(=O)N(C)CCCC/C=C\C4CC4(C(=O)NS(=O)(=O)C4(C#N)CC4)NC3=O)cc(-c3nc(C(C)C)cs3)nc2c1Cl (stereo not drawn) | > 1000 µM | > 7.00 | 5.00 to 7.00
5 | COc1ccc2c(OCC[C@@H]3NC(=O)N(C)CCCC/C=C\[C@@H]4C[C@@]4(C(=O)OS(=O)(=O)C4(C)CC4)NC3=O)cc(-n3ccc(C(F)(F)F)n3)nc2c1C | > 1000 µM | > 7.00 | > 7.00
6 | COc1ccc2c(OCC[C@@H]3NC(=O)N(C)CCCC/C=C\[C@@H]4C[C@@]4(C(=O)NS(=O)(=O)C4(I)CC4)NC3=O)cc(-c3nc(C(C)C)cs3)nc2c1C | > 1000 µM | > 7.00 | 5.00 to 7.00
7 | COc1ccc2c(OCCC3NC(=O)N(C)CCCC/C=C\C4CC4(C(=O)NS(=O)(=O)N(C)C)NC3=O)cc(-c3nc(C(C)C)cs3)nc2c1Cl (stereo not drawn) | > 1000 µM | > 7.00 | > 7.00
8 | COc1ccc2c(OCC[C@@H]3NC(=O)N(C)CCCC/C=C\[C@@H]4C[C@@]4(C(=O)NS(=O)(=O)C4(C)CC4)NC3=O)cc(-c3csc(NC(C)C)n3)nc2c1 | > 1000 µM | > 7.00 | 5.00 to 7.00
9 | COc1ccc2c(OCC[C@@H]3NC(=O)N(C)CCCC/C=C\[C@@H]4C[C@@]4(C(=O)NS(=O)(=O)C4(C)CC4)NC3=O)cc(-n3ccc(C(F)(F)F)n3)nc2c1Cl | > 1000 µM | > 7.00 | > 7.00
10 | COc1ccc2c(OCC[C@@H]3NC(=O)N(C)CCCC/C=C\[C@@H]4C[C@@]4(C(=O)NS(=O)(=O)C4(C)CC4)NC3=O)cc(-c3nc(C(C)C)cs3)nc2c1Cl | > 1000 µM | > 7.00 | > 7.00
11 | COc1ccc2c(OCC[C@@H]3NC(=O)N(C)CCCC/C=C\[C@@H]4C[C@@]4(C(=O)NS(=O)(=O)C4(C)CC4)NC3=O)cc(-c3ccn(CCN4CCOCC4)n3)nc2c1C | > 1000 µM | > 7.00 | 5.00 to 7.00
12 | CCn1ccc(-c2cc(OCC[C@@H]3NC(=O)N(C)CCCC/C=C\[C@@H]4C[C@@]4(C(=O)OS(=O)(=O)C4(C)CC4)NC3=O)c3ccc(OC)c(C)c3n2)n1 | > 1000 µM | > 7.00 | 5.00 to 7.00
13 | COc1ccc2c(OCC[C@@H]3NC(=O)N(C)CCCC/C=C\[C@@H]4C[C@@]4(C(=O)NS(=O)(=O)N4CCC[C@H]4C#N)NC3=O)cc(-c3nc(C(C)C)cs3)nc2c1Cl | > 1000 µM | 5.00 to 7.00 | 5.00 to 7.00
14 | CC(=O)OCC[C@@H]1NC(=O)N(C)CCCC/C=C\[C@@H]2C[C@@]2(C(=O)NS(=O)(=O)C2CC2)NC1=O | > 1000 µM | 5.00 to 7.00 | < 3.00
15 | COc1ccc2c(OCC[C@@H]3NC(=O)N(C)CCCC/C=C\[C@@H]4C[C@@]4(C(=O)NS(=O)(=O)C4(C)CC4)NC3=O)cc(-c3nc(C(C)C)cs3)nc2c1 | 10 to 1000 µM | > 7.00 | > 7.00
16 | COc1ccc2c(OCC[C@@H]3NC(=O)N(C)CCCC/C=C\[C@@H]4C[C@@]4(C(=O)NS(=O)(=O)C4(C)CC4)NC3=O)cc(-c3ccn(CC(C)C)n3)nc2c1C | > 1000 µM | > 7.00 | 5.00 to 7.00
17 | COc1ccc2c(OCC[C@@H]3NC(=O)N(C)CCCC/C=C\[C@@H]4C[C@@]4(C(=O)NS(=O)(=O)C4(C)CC4)NC3=O)cc(-n3ccc(C(C)C)n3)nc2c1Cl | > 1000 µM | > 7.00 | > 7.00

Row | SMILES | CC50 [1] | pIC50 (HCV NS3-NS4A protease) | pEC50 [2]
18 | COc1ccc2c(OCC[C@@H]3NC(=O)N(C)CCCC/C=C\[C@@H]4C[C@@]4(C(=O)NS(=O)(=O)N4CCC(F)(F)C4)NC3=O)cc(-c3nc(C(C)C)cs3)nc2c1Cl | > 1000 µM | 5.00 to 7.00 | 5.00 to 7.00
19 | COc1ccc2c(OCCC3NC(=O)N(C)CCCC/C=C\C4CC4(C(=O)NS(=O)(=O)C4(F)CC4)NC3=O)cc(-c3nc(C(C)C)cs3)nc2c1Cl (stereo not drawn) | > 1000 µM | > 7.00 | 5.00 to 7.00
20 | COc1ccc2c(OCC[C@@H]3NC(=O)N(C)CCCC/C=C\[C@@H]4C[C@@]4(C(=O)NS(=O)(=O)C4(C)CC4)NC3=O)cc(-n3ccc(C(C)C)n3)nc2c1C | > 1000 µM | > 7.00 | > 7.00
21 | COc1ccc2c(OCCC3NC(=O)N(C)CCCC/C=C\C4CC4(C(=O)NS(=O)(=O)N4CCOCC4)NC3=O)cc(-c3nc(C(C)C)cs3)nc2c1Cl (stereo not drawn) | > 1000 µM | 5.00 to 7.00 | 5.00 to 7.00
22 | COc1ccc2c(OCC[C@@H]3NC(=O)N(C)CCCC/C=C\[C@@H]4C[C@@]4(C(=O)O)NC3=O)cc(-c3ccccc3)nc2c1 | > 1000 µM | 5.00 to 7.00 | 3.00 to 5.00
23 | CCC1(S(=O)(=O)NC(=O)[C@@]23C[C@H]2/C=C\CCCCN(C)C(=O)N[C@@H](CCOc2cc(-c4nc(C(C)C)cs4)nc4c(Cl)c(OC)ccc24)C(=O)N3)CC1 | > 1000 µM | > 7.00 | > 7.00
24 | CCCn1ccc(-c2cc(OCC[C@@H]3NC(=O)N(C)CCCC/C=C\[C@@H]4C[C@@]4(C(=O)NS(=O)(=O)C4(C)CC4)NC3=O)c3ccc(OC)c(C)c3n2)n1 | > 1000 µM | > 7.00 | 5.00 to 7.00
25 | COc1ccc2c(OCCC3NC(=O)N(C)CCCC/C=C\C4CC4(C(=O)NS(=O)(=O)C4(C)CC4)NC3=O)cc(-c3nc(C(C)C)cs3)nc2c1Br (stereo not drawn) | > 1000 µM | > 7.00 | > 7.00
26 | COc1ccc2c(OCC[C@@H]3NC(=O)N(C)CCCC/C=C\[C@@H]4C[C@@]4(C(=O)NS(=O)(=O)C4CC4)NC3=O)cc(-c3nc(C(C)C)cs3)nc2c1F | > 1000 µM | > 7.00 | 3.00 to 5.00
27 | COc1ccc2c(OCC[C@@H]3NC(=O)N(C)CCCC/C=C\[C@@H]4C[C@@]4(C(=O)S(=O)(=O)C4(C)CC4)NC3=O)cc(-c3ccn(Cc4ccccc4)n3)nc2c1C | > 1000 µM | > 7.00 | 5.00 to 7.00
28 | COc1ccc2c(OCC[C@@H]3NC(=O)N(C)CCCC/C=C\[C@@H]4C[C@@]4(C(=O)NS(=O)(=O)C4(C)CC4)NC3=O)cc(-c3ccn(CCC(C)C)n3)nc2c1C | > 1000 µM | > 7.00 | 5.00 to 7.00
29 | COc1ccc2c(OCC[C@@H]3NC(=O)N(C)CCCC/C=C\[C@@H]4C[C@@]4(C(=O)NS(=O)(=O)C4CC4)NC3=O)cc(-c3nc(C(C)C)cs3)nc2c1Cl | > 1000 µM | > 7.00 | > 7.00
30 | COc1ccc2c(C(=O)OCC[C@@H]3NC(=O)N(C)CCCC/C=C\[C@@H]4C[C@@]4(C(=O)NS(=O)(=O)C4CC4)NC3=O)cc(-c3ccccc3)nc2c1 | > 1000 µM | 5.00 to 7.00 | < 3.00
31 | COc1ccc2c(OCC[C@@H]3NC(=O)N(C)CCCC/C=C\[C@@H]4C[C@@]4(C(=O)NS(=O)(=O)C4(C)CC4)NC3=O)cc(-c3cc(C(F)(F)F)nn3C)nc2c1C | > 1000 µM | > 7.00 | 5.00 to 7.00
32 | COc1ccc2c(OCCC3NC(=O)N(C)CCCC/C=C\C4CC4(C(=O)NS(=O)(=O)C4(C)CC4)NC3=O)cc(-c3nc(C(C)C)cs3)nc2c1F (stereo not drawn) | > 1000 µM | > 7.00 | 5.00 to 7.00
33 | C#CC1(S(=O)(=O)NC(=O)C23CC2/C=C\CCCCN(C)C(=O)NC(CCOc2cc(-c4nc(C(C)C)cs4)nc4c(Cl)c(OC)ccc24)C(=O)N3)CC1 (stereo not drawn) | > 1000 µM | > 7.00 | > 7.00
34 | COc1ccc2c(OCC[C@@H]3NC(=O)N(C)CCCC/C=C\[C@@H]4C[C@@]4(C(=O)NS(=O)(=O)C4(C)CC4)NC3=O)cc(-c3nc(C(C)C)cs3)nc2c1C | > 1000 µM | > 7.00 | > 7.00
